Test results reported in article PMC9784827, “In Combo Studies for the Optimization of 5-Aminoanthranilic Acid Derivatives as Potential Multitarget Drugs for the Management of Metabolic Syndrome” (Pharmaceuticals, 2022).
Like-named read-outs stand apart in the source and are kept apart here. Each block holds one molecule with its values, some of them ahead of it.

Key:
[1] = test system: diet-induced MetS model; set-up: method as in PMID 34577613; conditions: in vivo diet-induced MetS model, previous study ref 38; cited from earlier work
[2] = test system: diet-induced MetS model; assay: In vivo diet-induced (high-fructose high-fat) MetS model; set-up: species or system Sprague–Dawley male rats; conditions: MetS rats, 10 mg/kg p.o. for 14 days, vs untreated group; for effect on glucose levels / effect on total cholesterol levels / effect on triglyceride levels / effect on body weight: HFHF diet; for effect on glucose levels / effect on total cholesterol levels / effect on triglyceride levels: serum; for effect on triglycerides and glucose (TyG) index: TyG = Ln(triglyceride x glucose/2)
Method: In the diet-induced model, MetS was generated through 12 weeks of the consumption of a high-fructose high-fat (HFHF) diet per the previous experience in our group. The control group received a standard diet during the same period. After this induction phase, the animals of the standard diet were randomly allocated into two groups; one group (C/treated groups) would receive treatment with compounds 2, 3, or 4 for 14 days (10 mg/kg, p.o.), and the other group would receive no treatment (C groups). The same allocation was made for the diet-induced MetS group (the MetS group received no treatment, while MetS/treated groups received compound 2, 3, or 4, 10 mg/kg, p.o. for 14 days), as depicted in Figure 4.
For the in vivo experimentation, eighty Sprague–Dawley male rats weighing 250 ± 25 g were housed in acrylic boxes and treated following the recommendations and requirements of the NOM-062-ZOO-1999 (Official Mexican Standard for the Production, Care, and Use of Laboratory Animals). They were kept in a clear-air room maintained on an artificial 12 h light/dark cycle and were given ad libitum access to food and water. The protocol was approved by the Institutional Subcommittee for the Care and Use of Laboratory Animals (SICUAL) with the registration number FMM/SICUAL/006/2017 (date of approval, 30 August 2017).
The animals were randomly allocated to a group (control groups) that was fed on a regular Chow commercial diet (Purina-Rodent Laboratory Chow-5001 3.310 kcal/g) or to a group (MetS groups) that was supplied with a high-fructose and high-fat diet (4.161 kcal/g) for the generation of MetS. From our own experience, MetS is established after twelve weeks with this diet. The weight of each animal was recorded at the beginning of the study and every week after the completion of the induction period. In weeks nine and twelve, the glucose, total cholesterol, and triglyceride levels were monitored in fasting conditions of 12 h, using an Accutrend plus monitor (Roche). Following the MetS induction phase, the control and MetS groups were rearranged into the following groups: (1) control (CM, regular diet + no treatment n = 10); (2) MetS (HFHF diet + no treatment, n = 10); (3) control + compound 2 (C/2 regular diet + treatment with 2, n = 10); (4) MetS + compound 2 (MetS/2, HFHF diet + treatment with 2, n = 10); (5) control + compound 3 (C/3, regular diet + treatment with […], n = 10); (6) MetS + compound 3 (MetS/3, HFHF diet + treatment with 3, n = 10); (7) control + compound 4 (C/4, regular diet + treatment with 4, n = 10); (8) MetS + compound 4 (MetS/4, HFHF diet + treatment with 4, n = 10). The treatment stage lasted 14 days, and the animals retained the same diet they had during the induction to exclude the effect of diet change. All the animals received 100 μL of a 1% Kolliphor EL mixture in water with or without the tested compound (10 mg/Kg) via nasogastric. Animals were sacrificed by decapitation. The blood was collected and centrifuged at 1372× g for 15 min at 4 °C. The serum was gathered and stored at −80 °C until the determination of metabolic parameters.
The animals’ serum was defrosted, and triacylglyceride, cholesterol, and glucose levels were determined on an Architect c8000 system (Abbott, Wiesbaden, Germany). Statistical analysis was performed using one-way ANOVA, followed by Dunnett’s multiple comparisons tests employing GraphPad Prism version 9.4.1 (GraphPad Software, La Jolla, CA, USA). Differences were considered significant when p ≤ 0.05.

[3] = target: T1, HMG-CoA reductase (Homo sapiens, UniProt P04035); assay: In vitro HMG-CoA reductase inhibition (HMG-CoA Reductase Assay Kit, Sigma-Aldrich CS1090); type: biochemical; conditions: for inhibition at 20 µM: initial screening, read-out: inhibition of HMG-CoA reductase enzymatic activity
T1 construct: purchased Sigma-Aldrich CS1090
T1 sequence (P04035 426-888 limits assumed): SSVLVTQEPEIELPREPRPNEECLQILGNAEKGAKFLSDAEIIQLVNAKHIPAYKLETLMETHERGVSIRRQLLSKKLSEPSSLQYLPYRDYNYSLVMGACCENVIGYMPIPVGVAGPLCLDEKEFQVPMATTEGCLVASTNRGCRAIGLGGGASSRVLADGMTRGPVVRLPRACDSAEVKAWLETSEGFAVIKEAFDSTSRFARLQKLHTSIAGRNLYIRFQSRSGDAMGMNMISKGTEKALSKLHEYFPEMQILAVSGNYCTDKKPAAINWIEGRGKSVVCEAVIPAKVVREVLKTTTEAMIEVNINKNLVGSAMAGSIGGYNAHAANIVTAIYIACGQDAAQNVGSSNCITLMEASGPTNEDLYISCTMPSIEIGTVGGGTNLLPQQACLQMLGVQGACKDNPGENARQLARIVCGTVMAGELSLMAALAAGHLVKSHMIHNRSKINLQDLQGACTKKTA
Method: (§1) The HMG-CoA Reductase Assay Kit from Sigma-Aldrich (catalog number CS1090, St. Louis, MO, USA) was used to determine the inhibitory properties of compounds 3 and 4 over enzyme activity, using the instructions provided by the fabricant. […] For IC50 determination of compound 3, final concentrations of 2.5, 5.0, 10.0, and 20 μM were employed by triplicate. The Total Antioxidant Capacity Assay Kit from Sigma-Aldrich (catalog number MAK187, St. Louis, MO, USA) was used for the determination of in vitro antioxidant activity following the manufacturer’s instructions by triplicate.

[4] = Total antioxidant capacity, CUPRAC assay (Trolox equivalent antioxidant capacity); conditions: triplicate
Method: as §1

[5] = set-up: method as in PMID 20072920; conditions: CUPRAC; cited from earlier work
[6] = target: T1, HMG-CoA reductase; set-up: method as in earlier work; conditions: same commercial kit, ref 73 (Mendieta et al.); cited from earlier work

Structure (SMILES): COc1ccc(C(=O)Nc2ccc(NC(=O)c3ccc(OC)c(OC)c3)c(C(=O)NCc3ccc(C(F)(F)F)cc3)c2)cc1OC [Compound 1]
effect on blood pressure [1]: diminished | effect on glucose serum levels [1]: diminished | effect on total cholesterol serum levels [1]: diminished

Structure (SMILES): COc1ccc(C(=O)Nc2ccccc2C(=O)NCc2ccc(C(F)(F)F)cc2)cc1OC [Compound 2]
effect on glucose levels [2]: did not affect | effect on total cholesterol levels [2]: did not affect | effect on triglyceride levels [2]: did not affect | effect on body weight [2]: did not affect

inhibition at 20 µM [3]: 94% | IC50 ([3]; concentrations 2.5, 5.0, 10.0 and 20 μM, triplicate): 8.89 ± 0.51 µM
Structure (SMILES): COc1ccc(C(=O)Nc2ccc(NC(=O)c3ccc(OC)c(OC)c3)c(C(=O)O)c2)cc1OC [Compound 3, 2,5-Bis(3,4-dimethoxybenzamido)benzoic Acid]
effect on triglycerides and glucose (TyG) index [2]: decrease | effect on glucose levels [2]: reduced | effect on total cholesterol levels [2]: reduced | effect on triglyceride levels [2]: reduced | effect on body weight [2]: reduced | TEAC (Trolox equivalent antioxidant capacity) [4]: 1.01 ± 0.06

inhibition at 20 µM [3]: 46% | melting point: > 250 °C
Structure (SMILES): COc1ccc(/C=C/C(=O)Nc2ccc(NC(=O)/C=C/c3ccc(OC)c(OC)c3)c(C(=O)NCc3ccc(C(F)(F)F)cc3)c2)cc1OC [Compound 4, (2E,2′E)-N,N′-(2-((4-(Trifluoromethyl)benzyl)carbamoyl)-1,4-phenylene)bis(3-(3,4-dimethoxyphenyl)acrylamide)]
effect on triglycerides and glucose (TyG) index [2]: decrease | effect on total cholesterol levels [2]: not significant | effect on body weight [2]: not significant | TEAC (Trolox equivalent antioxidant capacity) [4]: 1.33 ± 0.04

Structure (SMILES): O=C(O[C@@H]1Cc2c(O)cc(O)cc2O[C@@H]1c1ccc(O)c(O)c1)c1cc(O)c(O)c(O)c1 [epicatechin gallate]
TEAC (Trolox equivalent antioxidant capacity) [5]: above 3.0

Structure (SMILES): COc1cc(/C=C/C(=O)O)ccc1O [ferulic acid]
TEAC (Trolox equivalent antioxidant capacity) [5]: 1.20

Structure (SMILES): O=c1c(O)c(-c2ccc(O)c(O)c2)oc2cc(O)cc(O)c12 [quercetin]
TEAC (Trolox equivalent antioxidant capacity) [5]: above 3.0

Structure (SMILES): C/C=C/c1cc(OC)c(OC)cc1OC [α-asarone]
IC50 [6]: 5.86 µM
